Assay results reported in patent publication US20220243211A1, “PEPTIDE NUCLEIC ACID COMPOSITIONS WITH MODIFIED HOOGSTEEN BINDING SEGMENTS AND METHODS OF USE THEREOF” (Yale University, priority 2019, published 2022).

What was measured:
human CFBE cells = experiment: MQAE cAMP-stimulated chloride efflux assay; format: cell-based
Description: FIG. 3 is a bar graph showing chloride efflux measured using fluorescent indicator dye N-[ethoxycarbonylmethyl]-6-methoxy-quinolinium bromide (MQAE), in untreated human CFBE cells and those treated with NPs, and those treated with blank particles. One way ANOVA with multiple comparisons was used to analyze chloride efflux in untreated CF cells, blank particle treated CF cells, PNA/DNA particle treated cells and normal human bronchial epithelial cells (16HBE14o-).
CFBE cells (CFBE41o-) and human bronchial epithelial cells (16HBE14o-) (Gruenert, et al., J Cyst Fibros 3 Suppl 2, 191-196 (2004)) were grown with EMEM (Corning) with 10% FBS, 20 mM L-glutamine, and Pen/Strep. Once grown to confluence, cells were trypsinized by first washing with PBS, then adding 0.25% trypsin for 5 minutes, and harvesting with culture media. Once grown to confluence, cells were trypsinized by first washing with 0.05% trypsin, then adding 0.25% trypsin for 5 minutes, and harvesting with RPMI medium with 10% FBS. Cells were frozen in 5% DMSO in culture medium as necessary. NPs were suspended in culture media by vigorous vortexing and water sonication, then added directly to cells at concentrations of 2 mg/mL×10^6 cells (corresponding to approximately 10^9 PNA/DNA molecules delivered to each cell assuming 100% efficiency).
Glass coverslips (22×50 mm) were sterilized by dipping in 70% EtOH and were subsequently placed in 60 mm cell culture dishes (3 per dish.) The plates were exposed to UV irradiation overnight. Cells (˜1×10^6) were seeded in the dish and the cells grew to confluence in MEM media containing 10% FBS, L-glutamine, and pen/strep. At least 12 hours before the experiment, the cells were fed with MEM media containing 5% FBS, L-glutamine, and pen/strep. The experiment was run as previously described (Shenoy, et al., Pediatric research 70, 447-452 (2011)). Briefly, cells were incubated with N-[ethoxycarbonylmethyl]-6-methoxy-quinolinium bromide (MQAE, Invitrogen) in DMSO (100 uL, 30 mM suspended in HEPES Cl solution) for 30 minutes at 37° C. […] MQAE was excited at 354±10 nm and the emitted fluorescence of at least 20 cells was measured at 460±10 nm every five seconds for two minutes. […] The rate of change in MQAE fluorescence (Δarbitrary fluorescence units/sec) was used to calculate Cl^− efflux.
To compare the activity of unmodified (classic) and γPNA treatments on gene editing in human CFBE cells, the cells were treated with either PLGA NPs containing no PNA/mismatched donor DNA (referred to as blank NP), PLGA NPs containing hCF-PNA/donor DNA, PBAE/PLGA/MPG NPs containing hCF-PNA/donor DNA and PBAE/PLGA/MPG NPs containing γhCF-PNA-h/donor DNA. After treatment of the cells, cAMP-stimulated chloride efflux was quantified using the MQAE assay (McNeer, et al., Nat Commun 6, 6952 (2015)). […]

[1] = Zeta potential and hydrodynamic diameter of formulated NPs by dynamic light scattering; format: physicochemical; settings: NPs containing PNA/donor DNA, PBS buffer, n = 3; for Z Av Diameter: dynamic light scattering
Experimental: Blank NPs containing no PNA and a mismatch donor DNA as a control were prepared as a control. The mismatched donor DNA was purposely added into blank NPs because addition of donor DNA helps to produce a similar surface charge on the control NPs as on the test NPs encapsulated with PNA/donor DNA combinations. […] All NP in the diameters were in the range of 200-350 nm, as measured by dynamic light scattering (Table 1), consistent with previous measurements (McNeer, et al., Nat Commun 6, 6952 (2015), Fields, et al., Adv Healthc Mater 4, 361-366 (2015), Fields, et al., J Control Release 164, 41-48 (2012)). PNA/DNA-loaded NPs were cationic (Fields, et al., Adv Healthc Mater 4, 361-366 (2015), Fields, et al., J Control Release 164, 41-48 (2012)) for PBAE/PLGA/MPG NPs (Table 1).

[2] = PBAE/PLGA/MPG NPs with PNA/donor DNA

| Substance | chloride efflux (human CFBE cells; [2]) | chloride efflux (human CFBE cells; PLGA NPs with PNA/donor DNA) | Zeta Potential [1] | Z Av Diameter [1] | chloride efflux compared to untreated cells or blank NPs (human CFBE cells; [2]) |
| --- | --- | --- | --- | --- | --- |
| H-KKK-TJTJJTTT-OOO-TTTCCTCTATGGGTAAG-KKK-NH2 [hCF PNA] (TNTNNTTTTTTCCTCTATGGGTAAG; listed as DNA, chemistry not fully specified) | further enhanced | marked increase in chloride efflux | 14.2 mV | 291.7 nm |  |
| H-KKK-TJTJJTTT-OOO-TTTCCTCTATGGGTAAG-KKK-NH2 [γhCF PNA-h] (TNTNNTTTTTTCCTCTATGGGTAAG; listed as DNA, chemistry not fully specified) [tail clamp PNA targeting human CFTR gene with MPγ monomers in Hoogsteen domain] | no different than non-CF affected HBE cells |  | 13.3 mV | 293.2 nm | 7 fold |
